Values quoted from earlier work, collected in patent US20110053172A1, “ONE STEP NANOSENSOR FOR SINGLE AND MULTIDRUG RESISTANCE IN ACUTE CORONARY SYNDROME (ACS)” (UNIVERSITY OF CALCUTTA, priority 2009, published 2011).

Settings: in comparison to aspirin; P=0.043

## COC(=O)[C@H](c1ccccc1Cl)N1CCc2sccc2C1 [clopidogrel]
  relative risk reduction in stroke, myocardial infarction, or ischaemic death: 8.7%
